Laboratory results published in PubChem BioAssay AID212 (DTP/NCI, 2004).
“And” between values parts separate entries of the source, which are not always exact repeats. Identical values can stand only once. Inconclusive results are not listed.

Test system: BDF1 mice, colon carcinoma 38 sc, T/C %
Test: NCI In Vivo Anticancer Drug Screen. Data for tumor model Colon Carcinoma 38 (subcutaneous) in B6D2F1 (BDF1) mice
Settings: endpoint: median tumor weight (est.), higher = larger tumour
Method: The antitumor activity of compounds was measured in mice bearing transplantable tumors. Survival or tumor size were measured and the results are expressed as the measurement made in the treated group (T) divided by the measurement made in the vehicle treated control group (C). The tumor model used in this assay is Colon Carcinoma 38 (subcutaneous) in B6D2F1 (BDF1) mice

[1] = dose: 50.0 mg/kg/injection, schedule: Q07DX002 (ip), vehicle: Klucel (hydroxypropylcellulose) (HPC)
[2] = dose: 100.0 mg/kg/injection, schedule: Q07DX002 (ip), vehicle: Klucel (hydroxypropylcellulose) (HPC)
[3] = dose: 200.0 mg/kg/injection, schedule: Q07DX002 (ip), vehicle: Klucel (hydroxypropylcellulose) (HPC)
[4] = dose: 400.0 mg/kg/injection, schedule: Q07DX002 (ip), vehicle: Klucel (hydroxypropylcellulose) (HPC)
[5] = dose: 12.5 mg/kg/injection, schedule: Q07DX002 (ip), vehicle: saline with Tween-80
[6] = dose: 25.0 mg/kg/injection, schedule: Q07DX002 (ip), vehicle: saline with Tween-80
[7] = dose: 50.0 mg/kg/injection, schedule: Q07DX002 (ip), vehicle: saline with Tween-80
[8] = dose: 100.0 mg/kg/injection, schedule: Q07DX002 (ip), vehicle: saline with Tween-80
[9] = dose: 200.0 mg/kg/injection, schedule: Q07DX002 (ip), vehicle: saline with Tween-80
[10] = dose: 25.0 mg/kg/injection, schedule: Q07DX002 (ip), vehicle: Klucel (hydroxypropylcellulose) (HPC)

## Cc1c(-c2ccc(C3CCCCC3)cc2)nc2ccc(F)cc2c1C(=O)O
[1]
  T/C: 89 % of control
[2]
  T/C: 80 % of control
[3]
  T/C: 116 % of control
[4]
  T/C: 86 % of control
dose: 400.0 mg/kg/injection, schedule: Q07DX002 (ip), vehicle: Klucel + Tween-80
  T/C: 120 % of control
dose: 800.0 mg/kg/injection, schedule: Q07DX002 (ip), vehicle: Klucel (hydroxypropylcellulose) (HPC)
  T/C: 107 % of control
dose: 800.0 mg/kg/injection, schedule: Q07DX002 (ip), vehicle: Klucel + Tween-80
  T/C: 80 % of control

## Cc1ccc(S(=O)(=O)NC(=S)S)cc1
[5]
  T/C: 108 % of control
[6]
  T/C: 54 % of control
[7]
  T/C: 116 % of control
[8]
  T/C: 100 % of control
[9]
  T/C: 60 % of control

## Cc1ccc(NC(=O)Oc2ccc(Br)cc2Br)c([N+](=O)[O-])c1
[6]
  T/C: 111 % of control and 102 % of control
[7]
  T/C: 51 % of control and 62 % of control
[8]
  T/C: 86 % of control and 94 % of control
[9]
  T/C: 65 % of control and 79 % of control

## CC(C)CC(NC(=O)CF)C(=O)O (stereo not given)
dose: 0.62 mg/kg/injection, schedule: Q07DX002 (ip), vehicle: saline
  T/C: 46 % of control
dose: 0.63 mg/kg/injection, schedule: Q07DX002 (ip), vehicle: saline
  T/C: 75 % of control
dose: 1.25 mg/kg/injection, schedule: Q07DX002 (ip), vehicle: saline
  T/C: 94 % of control and 96 % of control
dose: 5.0 mg/kg/injection, schedule: Q07DX002 (ip), vehicle: saline
  T/C: 74 % of control and 76 % of control
dose: 10.0 mg/kg/injection, schedule: Q07DX002 (ip), vehicle: saline
  T/C: 71 % of control and 92 % of control

## CCN1/C(=C/C=C/C=C\C=C\c2sc3ccc4ccccc4c3[n+]2CC)Sc2ccc3ccccc3c21
dose: 2.5 mg/kg/injection, schedule: Q07DX002 (ip), vehicle: saline with Tween-80
  T/C: 105 % of control
dose: 5.0 mg/kg/injection, schedule: Q07DX002 (ip), vehicle: saline with Tween-80
  T/C: 89 % of control
dose: 10.0 mg/kg/injection, schedule: Q07DX002 (ip), vehicle: saline with Tween-80
  T/C: 69 % of control
dose: 20.0 mg/kg/injection, schedule: Q07DX002 (ip), vehicle: saline with Tween-80
  T/C: 76 % of control

## CC(C)CC(=O)NC(C(=O)NC(C(=O)NC(CC(C)C)C(O)CC(=O)NC(C)C(=O)NC(CC(C)C)C(O)CC(=O)O)C(C)C)C(C)C (stereo not given)
[10]
  T/C: 79 % of control
[1]
  T/C: 109 % of control
[2]
  T/C: 95 % of control
[3]
  T/C: 120 % of control

## FC(F)(F)c1nc2nc(Cl)c(Cl)nc2[nH]1
[6]
  T/C: 93 % of control

## O=C1CN(CN2CCOCC2)C(=O)CN1CN1CCOCC1
dose: 12.5 mg/kg/injection, schedule: Q07DX002 (ip), vehicle: saline
  T/C: 115 % of control
dose: 50.0 mg/kg/injection, schedule: Q07DX002 (ip), vehicle: saline
  T/C: 116 % of control and 107 % of control
dose: 100.0 mg/kg/injection, schedule: Q07DX002 (ip), vehicle: saline
  T/C: 115 % of control
dose: 400.0 mg/kg/injection, schedule: Q07DX002 (ip), vehicle: saline
  T/C: 50 % of control

## CCN(CC)CCOC(=O)Cc1cc(OC)cc2c(=O)cc(-c3ccccc3)oc12
dose: 12.5 mg/kg/injection, schedule: Q07DX002 (ip), vehicle: Klucel (hydroxypropylcellulose) (HPC)
  T/C: 65 % of control
[10]
  T/C: 82 % of control
[1]
  T/C: 56 % of control
[2]
  T/C: 111 % of control
[3]
  T/C: 104 % of control

## Oc1c(Cl)cc(Cl)cc1C1N2CCCCC2C2c3cccn3-c3ccccc3N21 (stereo not given)
[10]
  T/C: 82 % of control
[1]
  T/C: 102 % of control
[2]
  T/C: 69 % of control
[3]
  T/C: 104 % of control
[4]
  T/C: 67 % of control

## Nc1ccn(C2CC(O)C(CO)O2)c(=O)n1 (stereo not given)
dose: 42.19 mg/kg/injection, schedule: Q07DX002 (ip), vehicle: water
  T/C: 124 % of control
dose: 84.38 mg/kg/injection, schedule: Q07DX002 (ip), vehicle: water
  T/C: 79 % of control
dose: 337.5 mg/kg/injection, schedule: Q07DX002 (ip), vehicle: water
  T/C: 110 % of control

## CC(=O)OC1C2OC3C=C(C)CCC3(CO)C(C)(C1O)C21CO1 (stereo not given)
dose: 1.0 mg/kg/injection, schedule: Q07DX002 (ip), vehicle: saline
  T/C: 80 % of control

## O=C(Nc1ccc(C2=NCCN2)cc1)c1ccc(C(=O)Nc2ccc(C3=NCCN3)cc2)c(Cl)c1
dose: 6.25 mg/kg/injection, schedule: Q07DX002 (ip), vehicle: saline with Tween-80
  T/C: 117 % of control
[5]
  T/C: 117 % of control
[7]
  T/C: 118 % of control

## COc1cc(Cc2nccc3cc(OC)c(OC)cc23)c(C(C)=O)c(OC)c1
dose: 10.0 mg/kg/injection, schedule: Q07DX002 (ip), vehicle: suspension in saline
  T/C: 104 % of control
dose: 20.0 mg/kg/injection, schedule: Q07DX002 (ip), vehicle: saline
  T/C: 110 % of control
dose: 20.0 mg/kg/injection, schedule: Q07DX002 (ip), vehicle: suspension in saline
  T/C: 103 % of control
dose: 40.0 mg/kg/injection, schedule: Q07DX002 (ip), vehicle: saline
  T/C: 107 % of control
dose: 40.0 mg/kg/injection, schedule: Q07DX002 (ip), vehicle: suspension in saline
  T/C: 59 % of control
dose: 80.0 mg/kg/injection, schedule: Q07DX002 (ip), vehicle: saline
  T/C: 82 % of control
dose: 80.0 mg/kg/injection, schedule: Q07DX002 (ip), vehicle: suspension in saline
  T/C: 81 % of control
dose: 160.0 mg/kg/injection, schedule: Q07DX002 (ip), vehicle: saline
  T/C: 96 % of control
dose: 320.0 mg/kg/injection, schedule: Q07DX002 (ip), vehicle: saline
  T/C: 74 % of control

## Cc1c(N)nc(C(CC(N)=O)NCC(N)C(N)=O)nc1C(=O)NC(C(=O)NC(C)C(O)CC(=O)NC(C(=O)NC(OC1OC(C)C(N)C(O)C1O)C(O)c1nc(-c2nc(C(=O)NCCCC(N)CC(=O)NCCCNCCCCN)cs2)cs1)C(C)O)C(OC1OC(CO)C(O)C(O)C1OC1OC(CO)C(O)C(OC(N)=O)C1O)c1cnc[nH]1 (stereo not given)
dose: 2.0 mg/kg/injection, schedule: Q07DX002 (ip), vehicle: saline
  T/C: 56 % of control
dose: 4.0 mg/kg/injection, schedule: Q07DX002 (ip), vehicle: saline
  T/C: 43 % of control
dose: 8.0 mg/kg/injection, schedule: Q07DX002 (ip), vehicle: saline
  T/C: 25 % of control
dose: 16.0 mg/kg/injection, schedule: Q07DX002 (ip), vehicle: saline
  T/C: 19 % of control
dose: 32.0 mg/kg/injection, schedule: Q07DX002 (ip), vehicle: saline
  T/C: 6 % of control

## CC(=O)OC1(C)CC(C)C(=O)C(C(O)CC2CC(=O)NC(=O)C2)C1 (stereo not given)
dose: 47.0 micrograms/kg/injection, schedule: Q07DX002 (ip), vehicle: saline
  T/C: 106 % of control
dose: 94.0 micrograms/kg/injection, schedule: Q07DX002 (ip), vehicle: saline
  T/C: 123 % of control
dose: 188.0 micrograms/kg/injection, schedule: Q07DX002 (ip), vehicle: saline
  T/C: 116 % of control
dose: 375.0 micrograms/kg/injection, schedule: Q07DX002 (ip), vehicle: saline
  T/C: 117 % of control
dose: 750.0 micrograms/kg/injection, schedule: Q07DX002 (ip), vehicle: saline
  T/C: 101 % of control

## CN1c2c(nc(N)[nH]c2=O)NCC1CCNc1ccc(C(=O)NC(CCC(=O)O)C(=O)O)cc1 (stereo not given)
dose: 50.0 mg/kg/injection, schedule: Q07DX003 (ip), vehicle: saline
  T/C: 155 % of control
dose: 100.0 mg/kg/injection, schedule: Q07DX003 (ip), vehicle: saline
  T/C: 64 % of control
dose: 200.0 mg/kg/injection, schedule: Q07DX003 (ip), vehicle: saline
  T/C: 99 % of control
dose: 400.0 mg/kg/injection, schedule: Q07DX003 (ip), vehicle: saline
  T/C: 98 % of control
dose: 800.0 mg/kg/injection, schedule: Q07DX003 (ip), vehicle: saline
  T/C: 92 % of control

## Cc1ccc(NCC2(/N=C/c3ccccc3)OC(CO)C(O)C2O)cc1 (stereo not given)
dose: 12.5 mg/kg/injection, schedule: Q07DX003 (ip), vehicle: Klucel (hydroxypropylcellulose) (HPC)
  T/C: 110 % of control
dose: 25.0 mg/kg/injection, schedule: Q07DX003 (ip), vehicle: Klucel (hydroxypropylcellulose) (HPC)
  T/C: 69 % of control
dose: 50.0 mg/kg/injection, schedule: Q07DX003 (ip), vehicle: Klucel (hydroxypropylcellulose) (HPC)
  T/C: 117 % of control
dose: 100.0 mg/kg/injection, schedule: Q07DX003 (ip), vehicle: Klucel (hydroxypropylcellulose) (HPC)
  T/C: 106 % of control
dose: 200.0 mg/kg/injection, schedule: Q07DX003 (ip), vehicle: Klucel (hydroxypropylcellulose) (HPC)
  T/C: 59 % of control
